# Test results from ChEMBL document CHEMBL1126867, “Antipicornavirus activity of tetrazole analogues related to disoxaril” (1993).
# Activity calls are given as the source filed them. The calls are words filed in the database; no cut-off is given here.
# How the values were obtained:
# [1] = tested on: rhinovirus B14; experiment: In vitro antiviral activity against human rhinovirus-14 using plaque reduction assay; assay type: functional, human rhinovirus type 14; details: Rhinovirus B
# [2] = tested on: Human rhinovirus 1A; experiment: In vitro antiviral activity against human rhinovirus-1A using plaque reduction assay; assay type: functional
# [3] = tested on: Human rhinovirus sp.; experiment: (§1) Minimum inhibitory concentration which inhibits 80% of serotypes was determined; assay type: functional
# [4] = tested on: Human rhinovirus sp.; experiment: In vitro antiviral activity against human rhinovirus 14 serotype; assay type: functional
# [5] = tested on: Human rhinovirus 1A; experiment: (§2) In vitro antiviral activity against human rhinovirus 1A serotype; assay type: functional
# [6] = tested on: Human rhinovirus sp.; experiment: In vitro antiviral activity against human rhinovirus 2 serotype; assay type: functional
# [7] = tested on: Human rhinovirus sp.; experiment: In vitro antiviral activity against human rhinovirus 50 serotype; assay type: functional
# [8] = tested on: Human rhinovirus sp.; experiment: In vitro antiviral activity against human rhinovirus 6 serotype; assay type: functional
# [9] = tested on: Human rhinovirus sp.; experiment: In vitro antiviral activity against human rhinovirus 67 serotype; assay type: functional
# [10] = tested on: Human rhinovirus sp.; experiment: In vitro antiviral activity against human rhinovirus 86 serotype; assay type: functional
# [11] = tested on: Human rhinovirus sp.; experiment: In vitro antiviral activity against human rhinovirus 89 serotype; assay type: functional
# [12] = tested on: Human rhinovirus sp.; experiment: In vitro antiviral activity against human rhinovirus-15 serotype; assay type: functional
# [13] = tested on: Human rhinovirus sp.; experiment: In vitro antiviral activity against human rhinovirus-21 serotype; assay type: functional
# [14] = tested on: Human rhinovirus sp.; experiment: In vitro antiviral activity against human rhinovirus-22 serotype; assay type: functional
# [15] = tested on: Human rhinovirus sp.; experiment: In vitro antiviral activity against human rhinovirus-25 serotype; assay type: functional
# [16] = tested on: Human rhinovirus sp.; experiment: In vitro antiviral activity against human rhinovirus-30 serotype; assay type: functional
# [17] = tested on: Human rhinovirus sp.; experiment: In vitro antiviral activity against human rhinovirus-41 serotype; assay type: functional
# [18] = tested on: Human rhinovirus 1B (rhinovirus A); experiment: In vitro antiviral activity against human rhinovirus 1B serotype
# [19] = as §1; assay type: functional, human rhinovirus-1a, 14; details: Human rhinovirus sp.
# [20] = tested on: Human rhinovirus sp.; experiment: as §2; assay type: functional
# [21] = tested on: Human rhinovirus sp.; experiment: In vitro antiviral activity against human rhinovirus 1B serotype; assay type: functional
# [22] = tested on: rhinovirus B14; experiment: In vitro antiviral activity against human rhinovirus-14 using plaque reduction assay; not active; assay type: functional, organism-based; details: human rhinovirus type 14
# [23] = tested on: Human rhinovirus 1A; experiment: In vitro antiviral activity against human rhinovirus-1A using plaque reduction assay; not active; assay type: functional, organism-based
MIC50 [1] [µM],MIC50 [2] [µM],MIC80 [3] [µM],SMILES,also measured
1.74,0.11,–,Cc1cc(CCCOc2c(C)cc(-c3nnn(C)n3)cc2C)on1,MIC80 [19]: 0.4 µM; MIC [3]: 0.4 µM; MIC [4]: 1.7 µM; MIC [20]: 0.11 µM; MIC [21]: 0.03 µM; MIC [6]: 0.02 µM; MIC [7]: 0.23 µM; MIC [8]: 2.2 µM; MIC [9]: 0.14 µM; MIC [10]: 2.05 µM; MIC [11]: 0.01 µM; MIC [12]: 0.18 µM; MIC [13]: 0.02 µM; MIC [14]: 0.05 µM; MIC [15]: 0.06 µM; MIC [16]: 0.07 µM; MIC [17]: 0.4 µM
–,6.5,–,CCCCn1nnc(-c2cc(C)c(OCCCc3cc(C)no3)c(C)c2)n1,MIC50 [22]: inactive
4.35,–,–,Cc1cc(CCCCCOc2c(C)cc(-c3nnn(CCO)n3)cc2C)on1,MIC50 [23]: inactive
1.6,6.5,1.27,CCCn1nnc(-c2cc(C)c(OCCCc3cc(C)no3)c(C)c2)n1,–
0.73,0.73,0.65,CCn1nnc(-c2cc(C)c(OCCCCCc3cc(C)no3)c(C)c2)n1,–
0.8,0.67,0.25,CCn1nnc(-c2cc(C)c(OCCCc3cc(C)no3)c(C)c2)n1,–
0.62,0.18,1.59,Cc1cc(-c2nnn(C)n2)cc(C)c1OCCCCCc1cc(CO)no1,–
30.4,1.4,–,Cc1cc(-c2nnn(C)n2)cc(C)c1OCCCCCc1cc(C(=O)O)no1,–
0.45,0.34,0.39,Cc1cc(CCCCCOc2c(C)cc(-c3nnn(C)n3)cc2C)on1,–
0.38,0.38,0.25,Cc1cc(CCCCCOc2c(Cl)cc(-c3nnn(C)n3)cc2Cl)on1,–
0.06,4.03,–,Cc1cc(-c2nnn(C)n2)cc(C)c1OCCCCCc1cc(COCOCCO)no1,–
3,0.76,1.6,Cc1cc(CCCCCCCOc2c(C)cc(-c3nnn(C)n3)cc2C)on1,–
2.43,0.1,0.66,Cc1cc(CCCCOc2c(C)cc(-c3nnn(C)n3)cc2C)on1,–
1.91,0.24,0.73,Cc1cc(CCCCCCOc2c(C)cc(-c3nnn(C)n3)cc2C)on1,–

# More lines, now with the values behind:
SMILES,MIC50 [1] [µM],MIC50 [2] [µM],MIC80 [3] [µM],also measured
Cc1cc(-c2nnn(C)n2)cc(C)c1OCCCCCc1cc(COCCOCCOCCO)no1,1.05,4.9,–,–
Cc1cc(CCCCCOc2c(Cl)cc(C3=NCCO3)cc2Cl)on1 [WIN-54954],–,–,–,MIC [3]: 0.41 µM; MIC [4]: 1.2 µM; MIC [5]: 2.51 µM; MIC [6]: 0.02 µM; MIC [7]: 0.3 µM; MIC [8]: 0.23 µM; MIC [9]: 0.18 µM; MIC [10]: 0.21 µM; MIC [11]: 0.02 µM; MIC [12]: 0.41 µM; MIC [13]: 0.02 µM; MIC [14]: 0.02 µM; MIC [15]: 0.29 µM; MIC [16]: 0.09 µM; MIC [17]: 0.89 µM; MIC [18]: 0.17 µM
Cc1cc(-c2nnn(C)n2)cc(C)c1OCCCc1cc(CCO)no1,2,0.14,1.09,–
Cc1cc(-c2nnn(C)n2)cc(C)c1OCCCc1cc(CC(C)C)no1,0.32,0.46,1.5,–
Cc1cc(COc2c(C)cc(-c3nnn(C)n3)cc2C)on1,–,–,–,MIC50 [22]: inactive; MIC50 [23]: inactive
Cc1cc(-c2nnn(C)n2)cc(C)c1OCCCc1cc(CCCO)no1,0.17,0.2,0.4,–
CCc1cc(CCCOc2c(C)cc(-c3nnn(C)n3)cc2C)on1,0.5,0.05,0.41,–
CCCOc1cc(CCCOc2c(C)cc(-c3nnn(C)n3)cc2C)on1,0.08,0.39,0.6,–
COc1cc(CCCOc2c(C)cc(-c3nnn(C)n3)cc2C)on1,1.4,0.11,0.33,–
Cc1cc(-c2nnn(C)n2)cc(C)c1OCCCc1cc(C(C)O)no1 (stereo unspecified),1.4,0.14,1.1,–
CCOc1cc(CCCOc2c(C)cc(-c3nnn(C)n3)cc2C)on1,0.1,0.15,0.7,–
Cc1cc(-c2nnn(C)n2)cc(C)c1OCCCc1cc(C2CC2)no1,0.48,0.19,0.48,–
CCCCc1cc(CCCOc2c(C)cc(-c3nnn(C)n3)cc2C)on1,0.11,0.54,0.54,–
COCCOCOCc1cc(CCCCCOc2c(C)cc(-c3nnn(C)n3)cc2C)on1,0.33,2.89,–,–
Cc1cc(-c2nnn(C)n2)cc(C)c1OCCCc1cc(C(C)C)no1,0.73,0.28,0.73,–
COCCc1cc(CCCOc2c(C)cc(-c3nnn(C)n3)cc2C)on1,0.05,0.12,0.3,–
Cc1cc(CCOc2c(C)cc(-c3nnn(C)n3)cc2C)on1,–,2.14,–,MIC50 [22]: inactive
CCC(O)c1cc(CCCOc2c(C)cc(-c3nnn(C)n3)cc2C)on1 (stereo unspecified),0.13,–,–,MIC50 [23]: inactive
Cc1cc(-c2nnn(C)n2)cc(C)c1OCCCc1cc(CC(O)CO)no1 (stereo unspecified),–,0.67,–,MIC50 [22]: inactive
Cc1cc(-c2nnn(C)n2)cc(C)c1OCCCc1cc(CO)no1,3.4,0.2,3.4,–
COC(=O)Cn1nnc(-c2cc(C)c(OCCCCCc3cc(C)no3)c(C)c2)n1,–,–,–,MIC50 [22]: inactive; MIC50 [23]: inactive
CC(=O)c1cc(CCCOc2c(C)cc(-c3nnn(C)n3)cc2C)on1,0.96,0.12,–,–
Cc1cc(-c2nnn(C)n2)cc(C)c1OCCCc1cc(CC(C)O)no1 (stereo unspecified),1.8,0.71,–,–
CCCc1cc(CCCOc2c(C)cc(-c3nnn(C)n3)cc2C)on1,0.12,0.12,0.2,MIC [3]: 0.2 µM; MIC [4]: 0.12 µM; MIC [20]: 0.12 µM; MIC [21]: 0.03 µM; MIC [6]: 0.04 µM; MIC [7]: 0.09 µM; MIC [8]: 0.15 µM; MIC [9]: 0.22 µM; MIC [10]: 0.12 µM; MIC [11]: 0.02 µM; MIC [12]: 0.68 µM; MIC [13]: 0.02 µM; MIC [14]: 0.08 µM; MIC [15]: 0.006 µM; MIC [16]: 0.2 µM; MIC [17]: 0.93 µM
